Laboratory results taken from publication PMC9186491, “Novel Small Molecule Tyrosine Kinase 2 Pseudokinase Ligands Block Cytokine-Induced TYK2-Mediated Signaling Pathways” (Frontiers in Immunology, 2022).
Read-outs that look alike come from different tables or passages of the source.

What was measured:
[1] = system: JAK2-dependent EPO-induced phosphorylation of STAT5 (Tyr694/699) in TF1 cells; assay: JAK cellular selectivity assay, EPO-pSTAT5 (JAK2); assay type: cell-based, human
Description: (§1) The cells were then ready for the assay after incubating for 2 hours in a humidified, 5% CO2 cell culture incubator at 37°C. […] The curve fit was generated, and statistical analysis was performed using GraphPad Prism. IC50 values were derived by non-linear regression analysis and defined as the compound concentration at which the response level was reduced to half of its maximum relative to a DMSO control.

[2] = system: IL23-induced-IL17 production in mouse splenocytes; assay: IL23-induced IL17 production in mouse splenocytes; assay type: cell-based; conditions: Splenocyte; IL23-stimulated mouse splenocytes; read-out: mIL17 IC50
Description: (§2) generated by non-linear regression analysis to determine the IC50 values of compounds using […]
(Monkey, Canine, Rat and Mouse)
(A) Suppression of IL23-induced-IL17 production in mouse splenocytes by TYK2 JH2 ligands, […]
(§3) JH2 ligands, SHR2915, 0936, 1039 and 1213, in mouse splenocytes (B), Canine PBMCs (C), Rat PBMCs (D) and Macaque PBMCs (E). Inhibition data were calculated by comparison to vehicle […]
(§4) response curves were then generated to determine the IC50 values as derived by non-linear regression analysis using GraphPad Prism. […]

[3] = system: IL12-induced IFNγ production in human PBMCs; assay: IL12-induced IFNγ production in human PBMCs; assay type: cell-based; conditions: PBMC, IL12 overnight, read-out: TYK2-associated IL12-induced-IFNγ Production in Human PBMCs: IC50
Description: Human PBMC samples were obtained from iQ Biosciences, CA. 1.0 × 10^6/mL PBMCs were seeded in complete RPMI at a sterilized U-shaped 96-well plate with a volume of 200 μL/well. PBMCs were treated by serially-diluted test compounds, and incubated with 40 ng/mL recombinant human IL12 (Biolegend, #573002) for overnight in a humidified, 5% CO2 cell culture incubator at 37°C. The supernatant was then collected for detection of IFNγ secretion. IFNγ level was measured by Human IFNγ AlphaLISA Kit (PerkinElmer, AL217C/F) according to the manufacturer’s instructions.

[4] = system: IFNα-induced CXCL10 production in human whole blood; assay: IFNα-induced CXCL10 production in human whole blood; assay type: cell-based
Description: Human whole blood [drawn with Ethylenediaminetetraacetic acid (EDTA) as anti-coagulant] was obtained from Zen-Bio Inc. (Durham, NC). […] The plasma was collected for detection of C-X-C motif chemokine 10 (CXCL10, IP10) secretion. CXCL10 was measured by Human CXCL10/IP-10 AlphaLISA Kit (PerkinElmer, #AL259 C/F) according to the manufacturer’s instructions.

[5] = system: IL12-induced-IFNg production in Canine PBMCs; assay: IL12-induced IFNγ production in canine PBMCs; assay type: cell-based; conditions: Canis lupus familiaris, PBMC
Description: as §2
(§5) (Monkey, Canine, Rat and Mouse) […]
as §3, §4

[6] = system: JAK1-dependent IL6-induced phosphorylation of STAT3 (Tyr705) in TF1 cells; assay: JAK cellular selectivity assay, IL6-pSTAT3 (JAK1); assay type: cell-based; conditions: Homo sapiens, TF-1, read-out: JAK Cellular Selectivity (IC50) IL6-pSTAT3 (JAK1)
Description: as §1

[7] = system: IL12-induced-IFNg production in Macaque PBMCs; assay: IL12-induced IFNγ production in macaque PBMCs; assay type: cell-based, Macaque (Cyno Monkey); conditions: Primates, PBMC, read-out: IL12-induced-IFNg, IC50, Monkey
Description: as §2, §5, §3, §4

[8] = system: IL12-induced-IFNg production in mouse splenocytes; assay: IL12-induced IFNγ production in mouse splenocytes; assay type: cell-based; conditions: Splenocyte
[9] = system: JAK1/3-dependent IL2-induced phosphorylation of STAT5 (Tyr694/699) in Kit225 cells; assay: JAK cellular selectivity assay, IL2-pSTAT5 (JAK1/3); assay type: cell-based; conditions: Homo sapiens, KIT225, read-out: JAK Cellular Selectivity (IC50) IL2-pSTAT5 (JAK1/3)
Description: as §1

[10] = system: IL12-induced-IFNg production in Rat PBMCs; assay: IL12-induced IFNγ production in rat PBMCs; assay type: cell-based; conditions: PBMC
Description: as §2, §5, §3, §4

[11] = system: IFNα-induced TYK2/phosphoSTAT1 (Tyr701) in Kit225 T cells; assay: Kit225 T cell assay for IFNα-induced TYK2/phosphoSTAT1 activity; assay type: cell-based, human; conditions: Kit225 cells, 80 ng/mL IFNα, AlphaLISA; read-out: IC50 IFNα-induced-STAT1 Phosphorylation
Description: (§6) The cells were treated with serially diluted compounds for 1 hour and stimulated with 80 ng/mL human recombinant IFNα (R&D Systems) for 15 minutes. The treated cells were then lysed and cellular phosphorylated-STAT1 (Tyr701) levels were measured by AlphaLISA (PerkinElmer, Cat#ALSU-PST1) according to the manufacturer’s instructions.

[12] = system: IL23-induced TYK2/phosphoSTAT3 (Tyr705) in Kit225 T cells; assay: Kit225 T cell assay for IL23-induced TYK2/phosphoSTAT3 activity; assay type: cell-based, human; conditions: Kit225 cells, 100 ng/mL IL23, AlphaLISA; read-out: IC50 IL23-induced-STAT3 Phosphorylation
Description: as §6, with “100” for “80”, “IL23” for “IFNα”, “20” for “15”, “phosphorylated-STAT3 (Tyr705)” for “phosphorylated-STAT1 (Tyr701)”, “Cat# ALSU-PST3)” for “Cat#ALSU-PST1)”

[13] = system: moderate to severe psoriasis patients; set-up: method as in PMID 30205746; conditions: phase II, 267 patients; cited from earlier work

| Molecule | IC50 ([1]; Homo sapiens, TF-1, read-out: JAK Cellular Selectivity (IC50) EPO-pSTAT5 (JAK2)) [µM] | IC50 [2] [µM] | IC50 [3] [µM] | IC50 ([4]; Homo sapiens, 16 h, read-out: TYK2-associated IFNα-induced-CXCL10 Production in Human Whole Blood: IC50) [µM] | IC50 [5] [µM] | IC50 [6] [µM] | IC50 [7] [µM] | IC50 [8] [µM] | IC50 [9] [µM] | IC50 [10] [µM] | IC50 ([1]; TF1 cells, read-out: JAK Cellular Selectivity (IC50) EPO-pSTAT5 (JAK2)) [µM] | IC50 [11] [µM] | IC50 ([4]; Donor 1, read-out: IFNa-induced-CXCL10 Production in Human Whole Blood IC50, Donor 1) [µM] | IC50 ([4]; Donor 2, read-out: IFNa-induced-CXCL10 Production in Human Whole Blood IC50, Donor 2) [µM] | IC50 ([4]; Donor 3, read-out: IFNa-induced-CXCL10 Production in Human Whole Blood IC50, Donor 3) [µM] | IC50 ([4]; average of Donor 1-3, read-out: IFNa-induced-CXCL10 Production in Human Whole Blood IC50, Average) [µM] | IC50 [12] [µM] | Daily dose at which clinically effective [13] [mg] |
| --- | --- | --- | --- | --- | --- | --- | --- | --- | --- | --- | --- | --- | --- | --- | --- | --- | --- | --- |
| CNC(=O)c1nnc(Nc2ccc(N3CCC3)cn2)cc1Nc1cccc(-c2ncn(C)n2)c1OC [SHR2915] | > 10 | 0.011 | 0.045 | 0.16 | 0.033 | 0.2 ± 0.011 | 0.014 | 0.06 | 2.3 ± 0.97 | 0.003 | – | – | – | – | – | – | – | – |
| Deucravacitinib | – | – | – | – | – | – | – | – | – | – | > 10 | 0.0085 | 0.11 | 0.094 | 0.083 | 0.096 | 0.005 | ≥ 3 |
